Experimental data from patent US20030004154A1, “New crystal forms of oxcarbazepine and processes for their preparation” (priority 2001, published 2003).
Read-outs that look alike come from different tables or passages of the source.

How the values were obtained:
[1] = test system: voltage sensitive sodium channels; conditions: in vitro studies; cited from earlier work
[2] = cited from earlier work
[3] = Solid form after storage at ambient temperature, analyzed by PXRD; type: physicochemical; conditions: stored at ambient temperature (about 20 to 30° C.; gradual, may occur over several months)
Method: The present invention also provides a process for transforming Form B to Form C. […] The transformation is gradual and prolonged, and may occur over several months. One skilled in the art may appreciate that the optimal conditions and time for transformation may be discovered through routine experimentation. The characterization of crystalline phases were performed using Phillips PW 1710 Diffractometer. Thermograviometric analysis (TGA) was produced using Mettler TG50 equipped with Mettler TC11 TA processor. Differential Scanning calorimetry (DSC) was performed using Mettler DSC 30 apparatus. FTIR spectra were recorded using Nicolet Avatar 360 spectrometer. Oxcarbazepine Form B was stored at an ambient temperature. The resulting material was analyzed by PXRD and found to be Form C.

[4] = Solid form after slurry in protic solvent, analyzed by PXRD; type: physicochemical
Method: One skilled in the art may appreciate that other protic solvents may be used and the optimal conditions may be determined through routine experimentation. The characterization of crystalline phases were performed using Phillips PW 1710 Diffractometer. Thermograviometric analysis (TGA) was produced using Mettler TG50 equipped with Mettler TC11 TA processor. Differential Scanning calorimetry (DSC) was performed using Mettler DSC 30 apparatus. FTIR spectra were recorded using Nicolet Avatar 360 spectrometer. Oxcarbazepine Form B was suspended in ethanol for 24 hours. The product was analyzed by PXRD and determined to be Form A. Oxcarbazepine Form C was suspended in ethanol for 24 hours. The product was analyzed by PXRD and determined to be Form A. Oxcarbazepine Form D was suspended in water for 24 hours. The product is analyzed by PXRD and is determined to be Form A.

[5] = Solid form after heating, analyzed by PXRD; type: physicochemical
Method: The present invention also provides for processes that convert one form of oxcarbazepine into another form of oxcarbazepine. Form A may be obtained by heating oxcarbazepine solvate Form E at elevated temperatures between 40° C. and 80° C., preferably 60° C., for a period of 2 hours to 10 hours, preferably 4 hours. One skilled in the art may appreciate that Form E may transform to Form A under different conditions, and that the optimal conditions may be discovered with routine experimentation. The present invention also provides a process for transforming Form B to Form A. At about ambient temperature, Form B transforms to Form C. One skilled in the art would appreciate that such a transition may also occur at temperatures above and below ambient temperature, and that by routine experimentation the boundary of the temperature range may be determined. At higher temperatures, between 60° C. and 120° C., preferably 60° C., a transformation from form B to form A occurs after a few hours, as determined by the temperature. The temperature at which Form B transforms to Form A rather than Form C may be determined by routine experimentation. One skilled in the art may appreciate that the rate and extent of the transformation varies with the conditions and the amount of time under which the transformation occurs. […] FTIR spectra were recorded using Nicolet Avatar 360 spectrometer. […]

Compound: NC(=O)N1c2ccccc2CC(O)c2ccccc21 (centres unmarked) [10-hydroxy metabolite of oxcarbazepine]
- effect on voltage sensitive sodium channels [1]: blocks voltage sensitive sodium channels

Compound: NC(=O)N1c2ccccc2CC(=O)c2ccccc21 [Oxcarbazepine Form A, 10-oxo-10,11-dihydro-5H-dibenz[b, f]azepine-5-carboxamide]
- solubility ([2]; solvents ethanol, ether and water): practically insoluble
- solubility ([2]; solvents such as chloroform, dichloromethane, acetone and methanol): slightly soluble

Compound: NC(=O)N1c2ccccc2CC(=O)c2ccccc21 [Oxcarbazepine Form B, 10-oxo-10,11-dihydro-5H-dibenz[b, f]azepine-5-carboxamide]
- crystal form found by PXRD after storage (solid-state stability) [3]: Form C
- crystal form found by PXRD after suspension in solvent (solid-state stability) ([4]; suspended in ethanol for 24 hours): Form A
- crystal form found by PXRD after heating (solid-state stability) ([5]; heated to about 60° C., maintained for five hours): Form A

Compound: NC(=O)N1c2ccccc2CC(=O)c2ccccc21 [Oxcarbazepine Form D, 10-oxo-10,11-dihydro-5H-dibenz[b, f]azepine-5-carboxamide]
- crystal form found by PXRD after suspension in solvent (solid-state stability) ([4]; suspended in water for 24 hours): Form A

Compound: NC(=O)N1c2ccccc2CC(=O)c2ccccc21 [Oxcarbazepine solvate Form E, 10-oxo-10,11-dihydro-5H-dibenz[b, f]azepine-5-carboxamide]
- crystal form found by PXRD after heating (solid-state stability) ([5]; heated to 60° C., maintained for 4 hours): Form A
